Measurements published in US20210154281A1, “CELL-BASED CANCER VACCINES AND CANCER THERAPIES” (Massachusetts Institute of Technology, priority 2019, published 2021).
Where two headings read alike, the source gives them in different places.

Key:
[1] = tested on: B16F10 melanoma tumor cell line; assay: Cell viability (survival) assay with CellTiter-Glo, 48 hours; type: cell-based, mouse; details: at the concentrations used
Method: (§1) For assays of survival, 15,000 cells were plated per well in a 96-well plate in 100 μl media with 5 replicates per condition. Wells along the four edges of the plate were not used. Following cell attachment, the indicated drugs were added in an equal volume of media, and incubated for an additional 48 hours. The media was then removed and replaced with 100 ul of fresh media at room temperature. Following a 30 minute incubation at room temperature, 50 μl of CellTiter-Glo reagent was added, followed by 2 minutes of gentle mixing. The plate was incubated at room temperature for an additional 10 minutes. 100 μl of supernatant was transferred to a 96-well white opaque plate and luminescence was read on a Tecan microplate reader. Values were normalized to those of DMSO-treated control cells.

[2] = as above; type: cell-based, mouse; details: mouse, B16F10 melanoma tumor cells, 48 hours, normalized to DMSO-treated control cells
Method: as §1

[3] = tested on: B16F10 melanoma tumor cell line; assay: Cell death by AnnexinV/DAPI staining 48 hours after drug treatment; type: cell-based, mouse
Method: For assessment of cell death, floating and attached cells were harvested after 48 hours of treatment with the indicated chemotherapeutic drugs. Attached cells were detached using 5 mM EDTA in PBS. The recovered cells were centrifuged at 250×g for 5 minutes, washed once in PBS containing 0.9 mM Ca2+ and 0.5 mM Mg2+ and then stained with AnnV-FITC for 15 minutes in Annexin binding buffer at room temperature according to the manufacturer's protocol (Biolegend). Cells were co-stained with DAPI at a final concentration of 1 μg/ml for 2 minutes in Annexin binding buffer, brought to a final volume of 500 ul using PBS containing 0.9 mM Ca2^+ and 0.5 mM Mg2^+ and analyzed by flow cytometry.
To identify how DNA-damaging chemotherapy could be optimally used to enhance anti-tumor immune function, cytotoxicity assays were performed using the B16F10 melanoma tumor cell line expressing ovalbumin (B16-Ova). Cells were treated with clinically used chemotherapeutic agents followed by assaying for cell death by DAPI and Annexin V staining 48 hours later.

[4] = tested on: B16-Ova cells; assay: In vitro cross presentation assay: drug-treated B16-Ova cells, BMDC and OT-1 CD8+ T-cells, IFN-γ+ T-cells by flow cytometry; type: cell-based, mouse
Method: (§2) B16-Ova or MC-38 Ova cells were treated with various doses of chemotherapeutic drugs for 24 h followed by extensive washing in IMDM (10% FBS, P/S). Subsequently 1×10^6 treated cells were co-cultured with 2.5×10^5 BMDC per well of a 24-well plate for each condition tested. After 24 hours of co-culture, supernatants were removed from each well and the BMDC washed 2-3 times in T-cell media (RPMI containing 10% FBS, 20 mM HEPES, 1 mM sodium pyruvate, 55 uM b-mercaptoethanol, 2 mM L-glutamine, nonessential amino acids and antibiotics). CD8+OT-I T-cells isolated from spleens of OT-I mice were then co-cultured with the BMDC at 125,000 T-cells per well to achieve an effector to target ratio of 0.5. Where indicated, BMDC and/or T-cells were also exposed to chemotherapy drugs. After a 12-15 h incubation, IFN-g producing T-cells were identified and quantified by intra-cellular cytokine staining and flow cytometry using a BD LSR II or Fortessa flow cytometer. Cells were first gated for CD3 expression, then re-gated for CD8 and IFNg expression.
An experimental system was developed to assess dendritic cell-mediated T-cell priming using the B16-Ova cells, in combination with primary bone-marrow derived dendritic cells (BMDC) and OT-I CD8+ T-cells expressing a TCR transgene that specifically recognizes the Ova-derived peptide […] (SEQ ID NO:1) in the context of H2-Kb (OT-1) (Clarke, et al., Immunol Cell Biol., 78(2):110-7 (2000); Hogquist, et al., Cell, 76(1):17-27 (1994)). […] The treated B16-Ova cells/BMDC co-culture was then incubated with purified CD8+ T-cells obtained from the spleens of OT-1 mice, and the appearance of IFNg+CD8 T-cells was measured 12-15 hours later by intracellular staining and subsequent quantification using flow cytometry.

[5] = tested on: p38MAPK; assay: Western blotting of cell lysates with anti-phospho-p38 antibody; type: cell-based, mouse; details: B16-Ova cells
[6] = tested on: B16-Ova cells; assay: Calreticulin surface exposure by flow cytometry; details: for CALR (%): 24 hours after treatment, representative experiment
[7] = tested on: CT26 mouse colon cancer cells; details: previously reported; cited from earlier work
[8] = tested on: MC-38-Ova cells; assay: In vitro cross presentation assay: drug-treated MC-38-Ova cells, BMDC and OT-1 CD8+ T-cells; type: cell-based, mouse
Method: as §2

[9] = tested on: B16-Ova cells; assay: ATP levels in cell-free culture media by CellTiter-Glo; type: cell-based, mouse; details: for ATP (nM) MEAN: culture media 24-48 hours after treatment
Method: For measurement of ATP levels, cell-free culture media obtained as above was analyzed by CellTiter-Glo according to the manufacturer's protocol. Values were converted to ATP concentrations using a standard curve generated using pure ATP.

[10] = tested on: B16-Ova cells; assay: HMGB1 in cell culture media by ELISA; type: cell-based, mouse; details: for HMGB1 (ng/ml) MEAN: culture media 24-48 hours after treatment
Method: Cell-free cell culture media was then analyzed by ELISA for HMGB1 according to the manufacturer's protocol.

CCc1c2c(nc3ccc(OC(=O)N4CCC(N5CCCCC5)CC4)cc13)-c1cc3c(c(=O)n1C2)COC(=O)[C@]3(O)CC [Iri, irinotecan]
growth arrest [1]: caused some degree of growth arrest
viability at 48 h, 0.25 µM ([2]; 0.25 uM): 99.8%
viability at 48 h, 1 µM ([2]; 1 uM): 97.9%
viability at 48 h, 0.05 uM ([2]; .05 uM): 96.8%
cytotoxicity at 0.05 µM ([3]; Mus musculus, B16-F10, 50 nM, 48 hours, read-out: AnnV+DAPI+ (%) Mean): 3.79%
cytotoxicity at 0.05 µM ([3]; Mus musculus, B16-F10, 50 nM, 48 hours, read-out: AnnV+DAPI− (%) Mean): 0.36%
cytotoxicity at 0.05 µM ([3]; Mus musculus, B16-F10, 50 nM, 48 hours, read-out: AnnV−DAPI+ (%) Mean): 1.87%
viability at 0.05 µM ([3]; Mus musculus, B16-F10, 50 nM, 48 hours, read-out: AnnV−DAPI− (%) Mean): 94%
cytotoxicity at 0.25 µM ([3]; Mus musculus, B16-F10, 250 nM, 48 hours, read-out: AnnV+DAPI+ (%) Mean): 5.06%
cytotoxicity at 0.25 µM ([3]; Mus musculus, B16-F10, 250 nM, 48 hours, read-out: AnnV+DAPI− (%) Mean): 0.54%
cytotoxicity at 0.25 µM ([3]; Mus musculus, B16-F10, 250 nM, 48 hours, read-out: AnnV−DAPI+ (%) Mean): 1.63%
viability at 0.25 µM ([3]; Mus musculus, B16-F10, 250 nM, 48 hours, read-out: AnnV−DAPI− (%) Mean): 92.8%
cytotoxicity at 1 µM ([3]; Mus musculus, B16-F10, 1 uM, 48 hours, read-out: AnnV+DAPI+ (%) Mean): 6.38%
cytotoxicity at 1 µM ([3]; Mus musculus, B16-F10, 1 uM, 48 hours, read-out: AnnV+DAPI− (%) Mean): 1.74%
cytotoxicity at 1 µM ([3]; Mus musculus, B16-F10, 1 uM, 48 hours, read-out: AnnV−DAPI+ (%) Mean): 0.89%
viability at 1 µM ([3]; Mus musculus, B16-F10, 1 uM, 48 hours, read-out: AnnV−DAPI− (%) Mean): 91%

COc1cccc2c1C(=O)c1c(O)c3c(c(O)c1C2=O)C[C@@](O)(C(=O)CO)C[C@@H]3O[C@H]1C[C@H](N)[C@H](O)[C@H](C)O1 [Dox, doxorubicin]
activating cells ([4]; 0.5 μM and 1.0 μM): effective at activating cells
activating cells ([4]; 10 μM and 50 μM): not effective at activating cells
inducing DC-mediated IFN-γ in T-cells ([4]; 10 and 50 uM (Table 3, Table 4)): ineffective
% CD3+CD8+IFN-γ+ T-cells MEAN ([4]; B16-Ova cells treated with 10 uM for 24 h): 0.13%
% CD3+CD8+IFN-γ+ T-cells MEAN ([4]; B16-Ova cells treated with 50 uM for 24 h): 0.28%
IFN-gamma production in CD8+ T-cells ([4]; specific doses): promote IFN-gamma production in CD8+ T-cells
p38MAPK activation [5]: p38MAPK activation
viability at 48 h, 10 µM ([2]; 10 uM): 0.505%
viability at 48 h, 50 µM ([2]; 50 uM): 0.126%
CALR (%) ([6]; 10 uM): 4.97%
CALR (%) ([6]; 50 uM): 2.82%
level of externalized calreticulin ([6]; 24 hours of drug exposure): lowest levels
cell death ([3]; 10 μM and 50 μM): high levels of cell death
cell death by DAPI and Annexin V staining ([3]; 48 hours, at the concentrations used): caused varying extents of apoptotic and non-apoptotic cell death
cytotoxicity at 10 µM ([3]; Mus musculus, B16-F10, 10 uM, 48 hours, read-out: AnnV+DAPI+ (%) Mean): 48%
cytotoxicity at 10 µM ([3]; Mus musculus, B16-F10, 10 uM, 48 hours, read-out: AnnV+DAPI− (%) Mean): 31.6%
cytotoxicity at 10 µM ([3]; Mus musculus, B16-F10, 10 uM, 48 hours, read-out: AnnV−DAPI+ (%) Mean): 0.04%
viability at 10 µM ([3]; Mus musculus, B16-F10, 10 uM, 48 hours, read-out: AnnV−DAPI− (%) Mean): 20.4%
cytotoxicity at 50 µM ([3]; Mus musculus, B16-F10, 50 uM, 48 hours, read-out: AnnV+DAPI+ (%) Mean): 52.1%
cytotoxicity at 50 µM ([3]; Mus musculus, B16-F10, 50 uM, 48 hours, read-out: AnnV+DAPI− (%) Mean): 27.1%
cytotoxicity at 50 µM ([3]; Mus musculus, B16-F10, 50 uM, 48 hours, read-out: AnnV−DAPI+ (%) Mean): 0.04%
viability at 50 µM ([3]; Mus musculus, B16-F10, 50 uM, 48 hours, read-out: AnnV−DAPI− (%) Mean): 20.8%
immunogenic cell death / calreticulin exposure [7]: induce calreticulin exposure
% CD3+CD8+IFN-γ+ T-cells MEAN ([8]; MC-38-Ova cells treated with 10 uM for 24 h): 1.217%
% CD3+CD8+IFN-γ+ T-cells MEAN ([8]; MC-38-Ova cells treated with 50 uM for 24 h): 0.08667%
ATP (nM) MEAN ([9]; 10 uM): 1.11 nM
ATP (nM) MEAN ([9]; 50 uM): 0.83 nM
ATP release ([9]; after 24 hours of treatment): Substantial ATP release
HMGB1 (ng/ml) MEAN ([10]; 10 uM): 77.83 ng/mL
HMGB1 (ng/ml) MEAN ([10]; 50 uM): 57.75 ng/mL
HMGB1 release into the media ([10]; 24-48 hours post-treatment window): high levels of HMGB1 release
